We go through 47 compounds from US6525059B1, “Substituted pyrazoles as p38 kinase inhibitors” (G. D. Searle & Company, priority 1998, dated 2003).

Each structure is given as a SMILES string. Read-outs that look alike come from different tables or passages of the source.

As a reminder, the IC50 is the midpoint of a concentration-inhibition curve.

In one assay the target is T1, human p38 kinase alpha (Homo sapiens, UniProt Q16539).
T1 construct: The coding region of the human p38a cDNA was obtained by PCR-amplification from RNA isolated from the human monocyte cell line THP.1; GST (N); made in house; host or cells: E. coli DH10B
T1 sequence (Q16539 whole entry): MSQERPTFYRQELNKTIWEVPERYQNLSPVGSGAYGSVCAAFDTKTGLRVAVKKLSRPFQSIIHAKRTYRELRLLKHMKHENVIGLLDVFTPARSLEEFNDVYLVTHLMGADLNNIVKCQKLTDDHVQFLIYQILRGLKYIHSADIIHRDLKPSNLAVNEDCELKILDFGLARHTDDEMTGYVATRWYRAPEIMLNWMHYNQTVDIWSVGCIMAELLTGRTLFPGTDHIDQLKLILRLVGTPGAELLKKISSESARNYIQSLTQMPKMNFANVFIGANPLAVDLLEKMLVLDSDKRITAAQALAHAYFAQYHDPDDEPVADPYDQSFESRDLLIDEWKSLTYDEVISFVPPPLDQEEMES
In words: p38 kinase in vitro assay, phosphorylation of biotinylated PHAS-I with gamma 32P-ATP. Format: biochemical. The conditions noted are these: for inhibition at 1 µM / inhibition at 10 µM: read-out: P38 alpha kinase % inhib @ conc. The method, boiled down:
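MKK6-activated human p38α phosphorylates biotinylated PHAS-I with γ-32P-ATP in 25 mM HEPES pH 7.5, 10 mM Mg acetate, 50 μM unlabeled ATP, 1% DMSO, 30 °C for 1 h or overnight. Compounds at 100–0.001 μM (10-fold steps, triplicate); substrate captured on streptavidin filter plates and counted by scintillation.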

For another assay, the system named is TNF-α. In words: LPS stimulation of TNF production by U937 cells. The assay is classed as cell-based, human. The conditions noted are these: for IC50 / inhibition at 1 µM: Homo sapiens; for inhibition at 1 µM: U-937, @ 1.0 uM, read-out: U937 Cell % inhib @ conc.; for U937 Cell % inhib @ conc.: @ 1.0 uM. On the procedure: Fifty million cells in 100 ml media were induced to terminal monocytic differentiation by 24 hour incubation with 20 ng/ml phorbol 12-myristate 13-acetate (Sigma). The cells were washed by centrifugation (200×g for 5 min) and resuspended in 100 ml fresh medium. After 24-48 hours, the cells were harvested, centrifuged, and resuspended in culture medium at 2 million cells/ml.
Compounds were prepared as 10 mM stock solutions in DMSO and diluted in culture medium to yield a final DMSO concentration of 0.1% in the cell assay. LPS (E coli, 100 ng/ml final concentration) was then added at a volume of 0.02 ml. After 4 hour incubation at 37° C., the amount of TNF-α released in the culture medium was quantitated by ELISA. Inhibitory potency is expressed as IC50 (μM).
In vitro whole cell assay for measuring the ability of the compounds to inhibit TNF production in human U937 cells stimulated with LPS are shown in the column identified as: […]

The mark [1] stands for this setting: U-937, TNF production, LPS-stimulated human U937 cells, read-out: U937 Cell IC50.
Where [2] appears, read: read-out: P38 alpha kinase IC50.

On to `CCS(=O)(=O)NCc1[nH]nc(-c2ccc(F)cc2)c1-c1ccncc1` [Example B-0105], for which the inhibition at 1 µM on human p38 kinase alpha amounted to 78%. The IC50 with TNF-α (setting [1]) amounted to 5 µM.
`COc1cc(NC(=O)NCc2[nH]nc(-c3ccc(F)cc3)c2-c2ccncc2)cc(OC)c1OC` [Example B-0191]: the inhibition at 1 µM at human p38 kinase alpha stood at 40%; in the assay with TNF-α, 29%.
`O=C(NCc1[nH]nc(-c2ccc(F)cc2)c1-c1ccncc1)c1ccco1` [Example B-0209]: at human p38 kinase alpha (setting [2]), the concentration for half-maximal inhibition (IC50) was 0.29 µM. For the same compound, the inhibition at 1 µM in the assay on TNF-α worked out at 8%.
For `C[C@@H](NC(=O)c1ccc(I)cc1)c1[nH]nc(-c2ccc(F)cc2)c1-c1ccncc1` [Example B-0363], in that order: 4.67 µM and 25%.
Regarding `CC(=O)Nc1nc(C)c(S(=O)(=O)NCc2[nH]nc(-c3ccc(F)cc3)c2-c2ccncc2)s1` [Example B-0222], the IC50 on human p38 kinase alpha (setting [2]) is 0.4 µM. In the assay with TNF-α, the inhibition at 1 µM is 29%.
For `C[C@@H](NC(=O)C(C)(C)C)c1[nH]nc(-c2ccc(F)cc2)c1-c1ccncc1` [Example B-0424], in that order: 0.083 µM and 32%.
For `Cc1ccc(S(=O)(=O)N[C@@H](Cc2ccccc2)C(=O)N[C@H](C)c2[nH]nc(-c3ccc(F)cc3)c2-c2ccncc2)cc1` [Example B-0383], in that order: 1.43 µM and 10%.
For `C[C@@H](NC(=O)N[C@H](C)c1[nH]nc(-c2ccc(F)cc2)c1-c1ccncc1)c1ccccc1` [Example B-0414], in that order: 0.54 µM and 25%.
On to `CC(C)C(=O)NCc1[nH]nc(-c2ccc(F)cc2)c1-c1ccncc1` [Example B-0010], for which the results for the IC50 on human p38 kinase alpha (setting [2]) and with TNF-α (setting [1]) were 0.52 µM and 0.65 µM, respectively.
As for `NC(=O)NCc1[nH]nc(-c2ccc(F)cc2)c1-c1ccncc1` [Example B-0214], the IC50 on human p38 kinase alpha (setting [2]) was 0.16 µM. Moreover, the inhibition at 1 µM with TNF-α was 50%.
For `C[C@@H](NS(=O)(=O)c1cn(C)cn1)c1[nH]nc(-c2ccc(F)cc2)c1-c1ccncc1` [Example B-0486], in that order: 0.24 µM and 80%.
For `C[C@@H](NC(=O)c1c(F)cccc1F)c1[nH]nc(-c2ccc(F)cc2)c1-c1ccncc1` [Example B-0523], the IC50 at human p38 kinase alpha (setting [2]) was found to be 0.19 µM. The inhibition at 1 µM in the assay on TNF-α is 83%.
Take `O=S(=O)(NCc1[nH]nc(-c2ccc(F)cc2)c1-c1ccncc1)c1ccc(F)cc1` [Example B-0104]: the inhibition at 1 µM at human p38 kinase alpha stood at 56%. In addition, the half-maximal inhibitory concentration (IC50) in the assay on TNF-α (setting [1]) was determined as 2.78 µM.
For `O=C(NCc1[nH]nc(-c2ccc(F)cc2)c1-c1ccncc1)c1c(F)cccc1F` [Example B-0298], the IC50 at human p38 kinase alpha (setting [2]) amounted to 0.58 µM. Moreover, the inhibition at 1 µM with TNF-α is 48%.
Consider `COc1cc(OC)c(NC(=O)NCc2[nH]nc(-c3ccc(F)cc3)c2-c2ccncc2)cc1Cl` [Example B-0187], for which the inhibition at 10 µM on human p38 kinase alpha worked out at 4%. Besides, in the assay on TNF-α, the inhibition at 1 µM is 14%.
On to `Fc1ccc(-c2n[nH]cc2-c2ccnc3ccccc23)cc1` [Example A-291], for which the IC50 at human p38 kinase alpha (p38α in vitro, PHAS-I assay procedure, read-out: p38^1 IC50) is 0.388 µM; with TNF-α (U-937, LPS-stimulated U937 cells, read-out: U937 IC50), 1.13 µM.
Consider `O=C(NCc1[nH]nc(-c2ccc(F)cc2)c1-c1ccncc1)c1cccc(C(F)(F)F)c1` [Example B-0270], for which the IC50 on human p38 kinase alpha (setting [2]) was determined as 5.79 µM. In the assay on TNF-α, the inhibition at 1 µM came out at 13%.
For `C[C@@H](NC(=O)C1CCC1)c1[nH]nc(-c2ccc(F)cc2)c1-c1ccncc1` [Example B-0360], in that order: 1.6 µM and 19%.
Regarding `O=C(NCc1[nH]nc(-c2ccc(F)cc2)c1-c1ccncc1)c1ccccc1Cl` [Example B-0289], the IC50 at human p38 kinase alpha (setting [2]) stood at 0.15 µM. In the assay with TNF-α, the inhibition at 1 µM stood at 55%.
For `C[C@@H](NC(=O)c1cccc(F)c1)c1[nH]nc(-c2ccc(F)cc2)c1-c1ccncc1` [Example B-0517], in that order: 0.094 µM and 52%.
For `O=C(NCc1[nH]nc(-c2ccc(F)cc2)c1-c1ccncc1)c1cccc(Br)c1` [Example B-0073], the results for the inhibition at 1 µM at human p38 kinase alpha and in the assay with TNF-α were 91% and 24%, respectively.
With `CCOC(=O)c1cccc(NC(=O)NCc2[nH]nc(-c3ccc(F)cc3)c2-c2ccncc2)c1` [Example B-0154], the inhibition at 10 µM at human p38 kinase alpha amounted to 65%. Moreover, the inhibition at 1 µM in the assay on TNF-α came to 14%.
In the case of `COc1cccc(CC(=O)N[C@H](C)c2[nH]nc(-c3ccc(F)cc3)c2-c2ccncc2)c1` [Example B-0373], the IC50 at human p38 kinase alpha (setting [2]) was determined as 0.45 µM. The inhibition at 1 µM with TNF-α is 18%.
For the compound `CC(C)(C)C(=O)NC(Cc1ccccc1)c1[nH]nc(-c2ccc(F)cc2)c1-c1ccncc1` (stereo not shown) [Example B-0746], on human p38 kinase alpha (setting [2]), the IC50 worked out at 0.01 µM. Moreover, the “U937 Cell % inhib @ conc.” value with TNF-α came to 22.0% @ 1.0 uM.
On to `CC(C)=CC(=O)N[C@H](C)c1[nH]nc(-c2ccc(F)cc2)c1-c1ccncc1` [Example B-0370], for which, at human p38 kinase alpha (setting [2]), the IC50 turned out to be 0.65 µM. Also, the inhibition at 1 µM in the assay on TNF-α is 28%.
For `C[C@@H](NS(=O)(=O)c1cccc(C(F)(F)F)c1)c1[nH]nc(-c2ccc(F)cc2)c1-c1ccncc1` [Example B-0471], in that order: 0.027 µM and 97%.
On to `CN(C)S(=O)(=O)NCc1[nH]nc(-c2ccc(F)cc2)c1-c1ccncc1` [Example B-0264], for which the half-maximal inhibitory concentration (IC50) on human p38 kinase alpha (setting [2]) stood at 0.14 µM. Moreover, the inhibition at 1 µM with TNF-α is 18%.
`Cc1ccc(C(=O)N[C@H](C)c2[nH]nc(-c3ccc(F)cc3)c2-c2ccncc2)cc1` [Example B-0374]: the IC50 on human p38 kinase alpha (setting [2]) came to 1.38 µM. The “U937 Cell % inhib @ conc.” value in the assay with TNF-α is 12.0% @ 1.0 uM.
In the case of `O=S(=O)(NCc1[nH]nc(-c2ccc(F)cc2)c1-c1ccncc1)c1cc(Cl)cc(Cl)c1` [Example B-0241], the IC50 at human p38 kinase alpha (setting [2]) was 0.1 µM. Moreover, the inhibition at 1 µM with TNF-α worked out at 45%.
`C[C@@H](NS(=O)(=O)c1ccc(-c2ccccn2)s1)c1[nH]nc(-c2ccc(F)cc2)c1-c1ccncc1` [Example B-0483]: on human p38 kinase alpha (setting [2]), the half-maximal inhibitory concentration (IC50) came out at 0.57 µM. In addition, in the assay with TNF-α, the inhibition at 1 µM worked out at 68%.
For the compound `O=S(=O)(NCc1[nH]nc(-c2ccc(F)cc2)c1-c1ccncc1)c1cc(Cl)cc(Cl)c1O` [Example B-0103], the results for the inhibition at 1 µM at human p38 kinase alpha and in the assay on TNF-α were 71% and 6%, respectively.
Take `CC(NC(=O)Cc1cccs1)c1[nH]nc(-c2ccc(F)cc2)c1-c1ccncc1` (stereo not shown) [Example B-0600]: the concentration for half-maximal inhibition (IC50) at human p38 kinase alpha (setting [2]) was 0.002 µM. Moreover, the “U937 Cell % inhib @ conc.” value in the assay with TNF-α amounted to 28.0% @ 1.0 uM.
For `O=C(NCc1[nH]nc(-c2ccc(F)cc2)c1-c1ccncc1)C1CCCC1` [Example B-0079], the inhibition at 1 µM turned out to be 93% on human p38 kinase alpha and 13% in the assay with TNF-α.
On to `O=S(=O)(/C=C\c1ccccc1)NCc1[nH]nc(-c2ccc(F)cc2)c1-c1ccncc1` [Example B-0119], for which the inhibition at 10 µM at human p38 kinase alpha was 89%. In addition, the IC50 in the assay on TNF-α (setting [1]) turned out to be 2.78 µM.
As to `C[C@@H](NC(=O)c1ccccc1F)c1[nH]nc(-c2ccc(F)cc2)c1-c1ccncc1` [Example B-0522], at human p38 kinase alpha (setting [2]), the IC50 is 0.15 µM. For the same compound, the inhibition at 1 µM in the assay on TNF-α amounted to 75%.
As for `COc1ccc(C(=O)NCc2[nH]nc(-c3ccc(F)cc3)c2-c2ccncc2)cc1OC` [Example B-0068], the results for the inhibition at 1 µM at human p38 kinase alpha and with TNF-α were 72% and 22%, respectively.
As to `O=C(NCc1[nH]nc(-c2ccc(F)cc2)c1-c1ccncc1)c1cc(F)cc(C(F)(F)F)c1` [Example B-0288], the IC50 at human p38 kinase alpha (setting [2]) stood at 4.46 µM. Further, the inhibition at 1 µM in the assay with TNF-α amounted to 26%.
As for `O=C(NCc1[nH]nc(-c2ccc(F)cc2)c1-c1ccncc1)c1cccc(Cl)c1Cl` [Example B-0279], on human p38 kinase alpha (setting [2]), the IC50 is 1.39 µM. Besides, in the assay on TNF-α, the inhibition at 1 µM turned out to be 33%.
`C[C@@H](NC(=O)c1cccc(F)c1F)c1[nH]nc(-c2ccc(F)cc2)c1-c1ccncc1` [Example B-0518]: the inhibition at 1 µM in the assay with TNF-α was 64%.
Same read-out and setting: as for `C[C@@H](NS(=O)(=O)c1cccc(Cl)c1Cl)c1[nH]nc(-c2ccc(F)cc2)c1-c1ccncc1` [Example B-0445], the figure is 83%; as for `C[C@@H](NS(=O)(=O)c1cc(Cl)cc(Cl)c1)c1[nH]nc(-c2ccc(F)cc2)c1-c1ccncc1` [Example B-0464], 91%.
Still for that read-out and setting: the figure for `Cc1ccccc1S(=O)(=O)NCc1[nH]nc(-c2ccc(F)cc2)c1-c1ccncc1` [Example B-0245] is 24%.
The same measure, in the same setting: the figure for `C[C@@H](NC(=O)c1cccc(C#N)c1)c1[nH]nc(-c2ccc(F)cc2)c1-c1ccncc1` [Example B-0499] is 37%.
Regarding `Cc1noc(C)c1C(=O)N[C@H](C)c1[nH]nc(-c2ccc(F)cc2)c1-c1ccncc1` [Example B-0529], the inhibition at 1 µM in the assay with TNF-α is 73%.
`C[C@@H](NC(=O)c1ccccn1)c1[nH]nc(-c2ccc(F)cc2)c1-c1ccncc1` [Example B-0379]: the inhibition at 1 µM in the assay on TNF-α amounted to 24%.
For `CCN(CC)C(=O)N[C@H](C)c1[nH]nc(-c2ccc(F)cc2)c1-c1ccncc1` [Example B-0420], the inhibition at 1 µM with TNF-α was 49%.
For `C[C@@H](NS(=O)(=O)c1ccc(Cl)cc1)c1[nH]nc(-c2ccc(F)cc2)c1-c1ccncc1` [Example B-0433], the inhibition at 1 µM with TNF-α worked out at 92%.
